According to patent publication US6087361A, “Aryl-imidazolines and aryl-imidazoles useful as α-2 adrenergic agonists without cardiovascular side effects” (Allergan Sales, Inc., priority 1997, dated 2000):

Assays:
I1 imidazoline receptor = I1 imidazoline receptor binding assay, 3H-clonidine, bovine VLM membranes; conditions: 25° C., 50 min
Experimental: Fresh bovine brain stems were obtained from a local slaughter house. After removal of pia-arachnoid, the medulla was isolated by dissecting the brain stem about 1 cm posterior and 1 cm caudal to the obex. The ventral quadrants of the medulla excluding the pyramids were used as the VLM. For each preparation, 30 to 40 VLM were used. Initial homogenization was performed in 20 volumes of 5 mM HEPES buffer (pH 7.4 at 4° C.) containing 250 mM sucrose, 50 uM Calpain I inhibitor (Boehginer Mannheim, Indianapolis, Ind.), 100 uM 1,10-phenanthroline (Sigma, St. Louis, Mo.) and 50 uM Pefabloc (Boehginer Mannheim, Indianapolis, Ind.), using Virtis homogenizer at setting 7 with three 10 second pulses, followed by three passes in a teflon-glass tissue homogenizer. The inhibitors were added to prevent degradation by proteases and peptidases. The homogenates were then centrifuged at 1000× g for 10 min and the resulting pellets were re-homogenized and centrifuged. Supernatants resulted from both runs were combined and centrifuged for 20 min at 48000× g. The pellets obtained were resuspended in a teflon-glass homogenizer in 50 mM Tris-HCl with 5 mM EDTA (pH 7.7 at 4° C.), centrifuged, and resuspended in 50 mM Tris-HCl with 25 mM NaCl, pH 7.7 at room temp. To remove endogenous ligands, the homogenate was incubated 30 min at room temp before it was centrifuged for 20 min at 48000× g. The pellets were then washed with 50 mM Tris-HCl buffer, (pH 7.4 at 4° C.) and loaded on top of 5 mM HEPES/0.85 M sucrose (pH 7.4 at 4° C.). Pellets obtained after centrifugation at 48000× g for 20 min were saved. The fatty connective tissue on the top layer was discarded. The partially purified VLM membrane pellets were then washed twice with 50 mM Tris-HCl, pH 7.7 at 4° C., flash frozen in dry ice/acetone slush, and stored at -100° C. until use. Receptor binding experiments were performed within days after the membrane preparation.
I1 imidazoline receptor binding affinity was determined from radioligand binding of ^3 H-clonidine (NEN, Boston, Mass.) to bovine VLM membranes. Specific activity of ^3 H-clonidine was 43 Ci/mmol. Kd of ^3 H-clonidine binding to the I1 imidazoline receptor was determined by saturation experiments and Ki of other ligands studied were determined by competition experiments. The radioligand binding assay was performed in Teflon 96-wells with the Biomek-1000 robotics (Beckman Instruments, Fullerton, Calif.). Each well contained […] ^3 H-Clonidine and 0.3 to 0.5 mg of bovine VLM protein in 5 mM HEPES buffer containing 0.5 mM EGTA and 0.5 mM MgCl2, pH 7.4 (0.1 mM ascorbic acid was added just before the protein). After 50 min of incubation at 25° C., the reaction was terminated by rapid filtration over Whatman GF/B filters treated with 0.1% polyethyleneimine and washed with 12 ml ice cold 50 mM Tris-HCl, pH 7.4 at 4° C. in a Brandel Harvester (Brandel, Gaithersburg, Md.). Both `hot` and `cold` saturation experiments were performed. In `hot` saturation experiments, studies were performed with ^3 H-clonidine ranging from 0.1 to 50 nM. In `cold` saturation experiments, studies were performed with 2 nM ^3 H-clonidine with 20 different concentrations of the unlabeled clonidine, ranging from 0.1 nM to 1 uM unlabeled clonidine. Non specific binding was defined by parallel incubations containing 10^-5 M phentolamine or naphazoline. Imidazoline binding was determined by parallel incubations in which the alpha-adrenergic sites were masked with 10^-5 M norepinephrine. During competition experiments, ligands of 20 concentrations ranged from 10^-11 to 10^-4 were used. Radioactivity was counted in a Beckman LS-3801 scintillation counter. Data were captured and analyzed with Accufit saturation and competition softwares modeled both for one-site and two-site fits (Beckman Instruments, Fullerton, Calif.) using an IBM compatible computer. All experiments were repeated at least twice.

I2A = test: Receptor binding, I2A
I2B = test: Receptor binding, I2B
α1 = test: Receptor binding, [3H]prazosin, human cerebral cortex membranes (HCC); conditions: 22° C., 30 min
Experimental: Tissue preparation: Membrane suspensions were prepared from human cerebral cortex ([…], for α1 receptors) obtained from the UCI Organ and Tissue Bank. Briefly, tissues (1 g) were homogenized in 25 mL of ice-cold 5 mM Tris, pH 7.4 with a Polytron homogenizer for 30 sec at setting #7, and centrifuged for
10-12 minutes at 300× g at 4° C. The supernatant was filtered through 2 layers of gauze and diluted 1:2 with 50 mM Tris-HCl buffer, pH 7.4, then centrifuged at 49,000× g for 20 minutes. The pellet fraction was washed 3 times (resuspended in Tris-HCl buffer and centrifuged for 20 minutes; at 49,000× g). The pellet was then stored at -80° C. until the binding assay.
(§1) Binding Studies: The radioligands [^3 H]rauwolscine (specific activity 80 Ci/mmol) and [^3 H]prazosin (specific activity 76 Ci/mmol) were obtained from New England Nuclear, Boston, Mass. Frozen membrane pellet was resuspended in 25 mM glycine/glycine, pH 7.5 and incubated with radioligand under the following conditions: CHO-C10, CHO-RNG, CHO-C4-[^3 H]rauwolscine, 22° C., 30 minutes; RKC-[^3 H]rauwolscine, 0° C., 120 minutes; and, HCC-[^3 H]prazosin, 22° C., 30 minutes in a final volume of 500 ul. At the end of the incubation period, the samples were filtered through glass filters (Whatman GF/B) in a 96 well cell harvester and rapidly washed four times with 4 mL of iced-cold 50 mM Tris-HCl buffer. The filters were then oven dried and transferred to scintillation vials containing 10 mL of Beckman's Ready Protein® scintillation cocktail for counting. […] Protein concentrations were determined with a protein assay kit from Bio Rad. Binding isotherms, equilibrium dissociation and affinity constants were analyzed and determined by the non-linear least squares curve fitting programs EBDA (BioSoft) or AccuFit Competition/Saturation by Beckman.
(§2) The radioligands [^3 H] rauwolscine (specific activity 80 Ci/mmol) and [^3 H] prazosin (specific activity 76 Ci/mmol) were obtained from New England Nuclear, Boston, Mass. Frozen membrane pellet was resuspended in 25 mM glycine/glycine, pH 7.4 and incubated with radioligand under the following conditions: CHO-C10, CHO-RNG, CHO-C4-[^3 H]rauwolscine, 22° C., 30 min.; and, HCC-[^3 H]prazowsin, 22° C., 30 minutes in a final volume of 500 ul. At the end of the incubation period, the samples were filtered through glass fiber filters (Whatman GF/B) in a 96 well cell harvester and rapidly washed four times which 4 mL of iced-cold 50 mM Tris-CHI buffer. The filters were then oven dried and transferred to scintillation vials containing 5 mL of Beckman's Ready Protein® scintillation cocktail for counting. […] Protein concentrations were determined with a protein assay kit from Bio lad. Binding isotherms, equilibrium dissociation and affinity constants were analyzed and determined by the non-linear least squares curve fitting programs AccuFit Competition/Saturation by Beckman.
(§3) Representative compounds of the present invention were tested according to the procedures given above. […] The receptor binding studies and K1 are measures of the affinity of a compound for a particular receptor.

human α2C = biological target: T1, human α2C (Homo sapiens, UniProt P18825); test: Receptor binding, [3H]rauwolscine, CHO-C4 cells expressing human α2C; conditions: CHO-C4, 22° C., 30 min
T1 construct: expressed in transfected cells; host or cells: CHO cells (CHO-C4)
T1 sequence (P18825 1-462): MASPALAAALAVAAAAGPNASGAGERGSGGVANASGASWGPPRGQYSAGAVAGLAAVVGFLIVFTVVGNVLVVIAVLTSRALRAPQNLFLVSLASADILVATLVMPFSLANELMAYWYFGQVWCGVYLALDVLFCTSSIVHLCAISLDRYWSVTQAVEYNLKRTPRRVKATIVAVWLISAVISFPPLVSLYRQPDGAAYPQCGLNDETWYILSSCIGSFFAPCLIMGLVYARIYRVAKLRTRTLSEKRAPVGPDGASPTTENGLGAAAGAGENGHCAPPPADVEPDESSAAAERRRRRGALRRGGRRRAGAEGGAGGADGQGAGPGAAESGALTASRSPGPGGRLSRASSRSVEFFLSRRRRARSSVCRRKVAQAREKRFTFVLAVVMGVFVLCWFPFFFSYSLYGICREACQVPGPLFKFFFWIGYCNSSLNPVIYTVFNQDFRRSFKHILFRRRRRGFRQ
Experimental: Cell preparation: Chinese hamster ovary (CHO) cells expressing the human α2A and human α2C (CHO-C10 and CHO-C4 respectively) receptors and CHO cells (CHO-RNG) expressing the rat α2B, adrenoceptor were grown to near confluence in Dulbecco's modified Eagle's medium supplemented with 10% fetal bovine serum using standard cell culture methods. Cells were harvested by scraping and placed into cold buffer of the following composition: 50 mM Tris-HCl, 5 mM EDTA, pH 7.4). […] The pellet fraction was washed (resuspended in Tris-HCl, pH 8 buffer and centrifuged for 15-20 minutes at 49,000× g) 2 times and stored at -100° until binding assay.
as §1, §2, §3

[1] = cited from earlier work
α2 receptors = conditions: cited from earlier work
[2] = system: imidazoline receptors and α2 adrenoceptors; conditions: cited from earlier work
[3] = rabbit, in vivo
α2A = conditions: cited from earlier work
α1 receptors = conditions: prazosin vs yohimbine; cited from earlier work

Structure (SMILES) | Ki (I1 imidazoline receptor) | Ki (I2A) | Ki (I2B) | Ki (α1) | further results
Clc1cccc(Cl)c1NC1=NCCN1 [Example 2] | 0.0089 µM | 10 µM | 12.5 µM |  | 
Brc1c(NC2=NCCN2)ccc2nccnc12 [Example 5] | 0.017 µM | 7.19 µM | 0.614 µM | 1.85 µM | 
COc1nc(C)nc(Cl)c1NC1=NCCN1 [Example 6] | 0.056 µM | 100 µM | 100 µM | 38.6 µM | 
Cc1c(Nc2ncc[nH]2)ccc2c1NCCO2 [Example 17] | 5.3 µM | 27 µM | 9.28 µM | 14.8 µM | 
COc1ccc(Nc2ncc[nH]2)c(C)c1 [Example 19] | 0.013 µM | 6.18 µM | 0.179 µM | 7.61 µM | 
Cc1c(Nc2ncc[nH]2)ccc2c1OCCO2 [Example 21] | 0.444 µM | 7.71 µM | 0.686 µM | 2.15 µM | 
Cc1cc(C(C)(C)C)c(O)c(C)c1CC1=NCCN1 [Example 23] | 7.42 µM | 12.9 µM | 2.69 µM | 0.199 µM | 
Cc1c(Nc2ncc[nH]2)ccc2nccnc12 [Example 24] | 0.227 µM | 6.37 µM | 0.036 µM | 30.6 µM | Ki (human α2C): 0.212 µM
Clc1cccc(Cl)c1N=C1NCCN1 [clonidine] |  |  |  |  | cardiovascular effect (in words) ([1]; in vivo): hypotensive cardiovascular effects; α2 adrenergic mechanism of action (in words) (α2 receptors): centrally acting α2 adrenergic partial agonist; binding to α2 and imidazoline receptors (in words) [2]: binds to both α2 and imidazoline receptors; IOP of the untreated eye (systemic effect) [3]: the IOP of the untreated eye is lowered to the same extent as the treated eye
Cc1cccc([C@H](C)c2cnc[nH]2)c1C [dexmedetomidine] |  |  |  |  | α2A selectivity (in words) (α2A): a2A selective
COc1cc2nc(N3CCN(C(=O)c4ccco4)CC3)nc(N)c2cc1OC [prazosin] |  |  |  |  | relative potency at α1 receptors (in words) (α1 receptors): more potent that yohimbine
C1COC(NC(C2CC2)C2CC2)=N1 [rilmenidine] |  |  |  |  | side effects compared to clonidine ([1]; equihypotensive doses): less bradycardia and reduction in cardiac output, less sedation, and little or no antinociceptive action compared to clonidine; selectivity for imidazoline receptors (in words) [2]: more selective for imidazoline receptors than for α2 -adrenoceptors
COC(=O)[C@@H]1[C@H]2C[C@H]3c4[nH]c5ccccc5c4CCN3C[C@@H]2CC[C@@H]1O [yohimbine] |  |  |  |  | relative potency at α2 receptors (in words) (α2 receptors; yohimbine vs prazosin): more potent than prazosin
